As usually defined, the pEC50 is −log10 of the EC50, conventionally taken in molar units.

The subject of the experiment is FRDA fibroblasts. The experiment in a line: Rescue of FRDA fibroblasts stressed by L-buthionine-(S,R)-sulfoximine (BSO), viability by Calcein AM fluorescence. Type of experiment: cell-based, human. Particulars: for pEC50: BSO-stressed (1 mM) FRDA fibroblasts GM04078. The method, then: An initial screen was performed to identify compounds effective for the amelioration of redox disorders. Test samples, 4 reference compounds (idebenone, decylubiquinone, Trolox and α-tocopherol acetate), and solvent controls were tested for their ability to rescue FRDA fibroblasts stressed by addition of L-buthionine-(S,R)-sulfoximine (BSO), as described in Jauslin et al., Hum. Mol. Genet. 11(24):3055 (2002), Jauslin et al., FASEB J. 17:1972-4 (2003), and International Patent Application WO 2004/003565. […] This specific BSO-mediated cell death can be prevented by administration of antioxidants or molecules involved in the antioxidant pathway, such as α-tocopherol, short chain quinones, selenium, or small molecule glutathione peroxidase mimetics. However, antioxidants differ in their potency, i.e. the concentration at which they are able to rescue BSO-stressed FRDA fibroblasts. With this assay EC50 concentrations of the test compounds were determined and compared to known reference antioxidants.
MEM (a medium enriched in amino acids and vitamins, catalog no. 1-31F24-I) and Medium 199 (M199, catalog no. 1-21F224) with Earle's Balanced Salts, without phenol red, were purchased from Bioconcept. Fetal Calf Serum was obtained from PAA Laboratories. Basic fibroblast growth factor and epidermal growth factor were purchased from PeproTech. Penicillin-streptomycin-glutamine mix, L-buthionine (S,R)-sulfoximine, (+)-α-tocopherol acetate, decylubiquinone, and insulin from bovine pancreas were purchased from Sigma. Trolox (6-hydroxy-2,5,7,8-tetramethylchromane-2-carboxylic acid) was obtained from Fluka. Idebenone was obtained from Chemo Iberica. Calcein AM was purchased from Molecular Probes. Cell culture medium was made by combining 125 ml M199 EBS, 50 ml Fetal Calf Serum, 100 U/ml penicillin, 100 μg/ml streptomycin, 2 mM glutamine, 10 μg/ml insulin, 10 ng/ml EGF, and 10 ng/ml bFGF; MEM EBS was added to make the volume up to 500 ml. A 10 mM BSO solution was prepared by dissolving 444 mg BSO in 200 ml of medium with subsequent filter-sterilization. During the course of the experiments, this solution was stored at +4° C. The cells were obtained from the Coriell Cell Repositories (Camden, N.J.; repository number GM04078) and grown in 10 cm tissue culture plates. Every third day, they were split at a 1:3 ratio.
The test samples were supplied in 1.5 ml glass vials. The compounds were diluted with DMSO, ethanol or PBS to result in a 5 mM stock solution. Once dissolved, they were stored at −20° C. Reference antioxidants (idebenone, decylubiquinone, α-tocopherol acetate and trolox) were dissolved in DMSO.
Test samples were screened according to the following protocol: A culture with FRDA fibroblasts was started from a 1 ml vial with approximately 500,000 cells stored in liquid nitrogen. Cells were propagated in 10 cm cell culture dishes by splitting every third day in a ratio of 1:3 until nine plates were available. Once confluent, fibroblasts were harvested. For 54 micro titer plates (96 well-MTP) a total of 14.3 million cells (passage eight) were re-suspended in 480 ml medium, corresponding to 100 μl medium with 3,000 cells/well. The remaining cells were distributed in 10 cm cell culture plates (500,000 cells/plate) for propagation. The plates were incubated overnight at 37° C. in a atmosphere with 95% humidity and 5% CO2 to allow attachment of the cells to the culture plate.
MTP medium (243 μl) was added to a well of the microtiter plate. The test compounds were unfrozen, and 7.5 μl of a 5 mM stock solution was dissolved in the well containing 243 μl medium, resulting in a 150 μM master solution. Serial dilutions from the master solution were made. The period between the single dilution steps was kept as short as possible (generally less than 1 second).
Plates were kept overnight in the cell culture incubator. The next day, 10 μl of a 10 mM BSO solution were added to the wells, resulting in a 1 mM final BSO concentration. […]

pEC50: −log10 of the molar value. Like-named read-outs stand apart in the source and are kept apart here.

Take `CC(=O)Oc1c(C)c(C)c2c(c1C)CC[C@@](C)(CCC[C@H](C)CCC[C@H](C)CCCC(C)C)O2` [α-tocopherol acetate, (+)-α-tocopherol acetate, reference compound]: the pEC50 runs as follows: (average of three experiments, read-out: EC50 Average) 6.52; (first of three experiments, read-out: EC50 Value 1) 6.40; (second of three experiments, read-out: EC50 Value 2) 6.82; (third of three experiments, read-out: EC50 Value 3) 6.46.

For `CC1=C(C)C(=O)C(CC[C@](C)(O)CCC[C@H](C)CCC[C@H](C)CCCC(C)C)=C(C)C1=O` [α-tocopherol quinone, 2-[(3R,7R,11R)-3-hydroxy-3,7,11,15-tetramethylhexadecyl]-3,5,6-trimethyl-2,5-cyclohexadiene-1,4-dione], the pEC50 (Homo sapiens, average of three experiments, read-out: EC50 Average) was 11.85; the pEC50 (Homo sapiens, first of three experiments, read-out: EC50 Value 1) is 12.00; the pEC50 (Homo sapiens, second of three experiments, read-out: EC50 Value 2) is 11.52. Also, the “EC50 fold lower than alpha-D-tocopherol” value (human cell culture model of FRDA, relative to alpha-D-tocopherol) is 10^4 fold. For the same compound, the “EC50 fold lower than idebenone” value (human cell culture models of FRDA, relative to idebenone) is 10^5 fold.

Values taken from patent publication US11021424B2, “Redox-active therapeutics for treatment of mitochondrial diseases and other conditions and modulation of energy biomarkers” (PTC THERAPEUTICS, INC., priority 2005, dated 2021).
